Test results published in ChEMBL document CHEMBL6182905, “Fluorinated sulfonamide-flavonoid derivatives as novel Keap1-Nrf2 inhibitors: Potent induction of cytoprotective gene HO-1 in vivo” (Eur J Med Chem, 2025).
Calls of active or inactive are those of the source. No cut-off for these calls is given here.

Legend:
[1] = biological target: T1, Nuclear factor erythroid 2-related factor 2 (Mus musculus) (UniProt Q60795); test: Activation of Nrf2 in LPS-stimulated mouse AML12 cells assessed as upregulation of Akr1c1 mRNA expression incubated for 16 hrs by RT-qPCR analysis; type: cell-based; conditions: filed as activator, dose 0.5-10 µM
T1 sequence (whole entry): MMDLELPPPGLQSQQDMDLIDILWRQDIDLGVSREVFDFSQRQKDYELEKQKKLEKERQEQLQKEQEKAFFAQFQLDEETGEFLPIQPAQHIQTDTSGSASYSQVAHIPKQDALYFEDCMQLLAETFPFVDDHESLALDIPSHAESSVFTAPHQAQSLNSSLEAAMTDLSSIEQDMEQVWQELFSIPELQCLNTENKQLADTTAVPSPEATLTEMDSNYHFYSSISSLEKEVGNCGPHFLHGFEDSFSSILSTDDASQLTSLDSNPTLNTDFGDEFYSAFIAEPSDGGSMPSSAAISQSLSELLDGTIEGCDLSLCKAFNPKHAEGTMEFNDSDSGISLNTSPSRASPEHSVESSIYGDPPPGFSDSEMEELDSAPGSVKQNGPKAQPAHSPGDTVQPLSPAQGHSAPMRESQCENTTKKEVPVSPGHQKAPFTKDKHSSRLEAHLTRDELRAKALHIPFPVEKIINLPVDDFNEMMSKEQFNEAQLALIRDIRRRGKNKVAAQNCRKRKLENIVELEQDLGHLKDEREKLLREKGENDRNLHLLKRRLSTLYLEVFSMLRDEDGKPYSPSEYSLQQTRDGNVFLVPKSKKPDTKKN

[2] = biological target: T1, Nuclear factor erythroid 2-related factor 2 (Mus musculus); test: Activation of Nrf2 in LPS-stimulated mouse AML12 cells assessed as upregulation of GCLM mRNA expression incubated for 16 hrs by RT-qPCR analysis; type: cell-based; conditions: filed as activator, dose 0.5-10 µM
Mus musculus [3] = test: Anti-inflammatory activity in APAP-induced C57BL/6 mouse model of acute liver injury assessed as reduction in macrophage aggregation in liver at 12.5 to 25 mg/kg, ip measured after 12 hrs by F4/80 staining based analysis; type: functional, organism-based; conditions: dose 12.5-25 mg/kg
[4] = biological target: T1, Nuclear factor erythroid 2-related factor 2 (Mus musculus); test: Activation of Nrf2 in LPS-stimulated mouse AML12 cells assessed as upregulation of GCLM mRNA expression by measuring fold change at 10 uM incubated for 16 hrs relative to sulforaphane; type: cell-based; conditions: filed as activator
Mus musculus [5] = test: Hepatoprotective activity in APAP-induced Nrf2 knockout male C57BL/6 mouse model of acute liver injury assessed as effect on ALT level in liver at 25 mg/kg, ip preadministered with compound followed by APAP induction and measured after 12 hrs; type: functional, organism-based
[6] = Tmax in Sprague-Dawley rat at 10 mg/kg, po; type: ADME, organism-based; conditions: in vivo
Mus musculus [7] = test: Anti-inflammatory activity against APAP-induced male C57BL/6 mouse model of acute liver injury assessed as upregulation of GCLM mRNA level in liver administered intraperitoneally and measured after 12 hrs by RT-qPCR analysis; type: functional, organism-based; conditions: dose 12.5-25 mg/kg, route ip
[8] = AUC (0 to t) last in Sprague-Dawley rat at 10 mg/kg, po; type: ADME, organism-based; conditions: in vivo
Mus musculus [9] = test: Anti-inflammatory activity in APAP-induced Nrf2 knockout male C57BL/6 mouse model of acute liver injury assessed as increase in F4/80 positive cells in liver at 25 mg/kg, ip preadministered with compound followed by APAP induction and measured after 12 hrs by staining based analysis; type: functional, organism-based
[10] = Drug concentration in liver of APAP-induced acute liver injury male C57BL/6 mouse model at 12.5 mg/kg, ip pre-administered with compound for 1 hr followed by APAP induction and measured after 12 hrs by Mass spectrometric analysis; type: ADME, organism-based; conditions: read-out: Ct
[11] = biological target: T1, Nuclear factor erythroid 2-related factor 2 (Mus musculus); test: Activation of Nrf2 in LPS-stimulated mouse AML12 cells assessed as upregulation of HO-1 mRNA expression incubated for 16 hrs by RT-qPCR analysis; type: cell-based; conditions: filed as activator, dose 0.5-10 µM
Mus musculus [12] = test: Hepatoprotective activity in APAP-induced male C57BL/6 mouse model of acute liver injury assessed as attenuation of nitric oxide (NO) level in liver at 12.5 to 25 mg/kg, ip measured after 12 hrs; type: functional, organism-based; conditions: dose 12.5-25 mg/kg
[13] = Drug concentration in plasma of APAP-induced acute liver injury male C57BL/6 mouse model at 25 mg/kg, ip pre-administered with compound for 1 hr followed by APAP induction and measured after 12 hrs by Mass spectrometric analysis; type: ADME, organism-based
[14] = biological target: T1, Nuclear factor erythroid 2-related factor 2 (Mus musculus); test: Activation of Nrf2 in LPS-stimulated mouse AML12 cells assessed as upregulation of Nrf2 protein level incubated for 16 hrs by Western blot analysis; type: cell-based; conditions: filed as activator, dose 0.5-10 µM
[15] = Elimination half life in Sprague-Dawley rat at 1 mg/kg, iv; type: ADME, organism-based; conditions: in vivo, read-out: beta t1/2 (converted)
[16] = Toxicity in C57BL/6J mouse assessed as histopathological change in renal tissue at 25 mg/kg, ip by H and E staining based analysis; type: organism-based; conditions: in vivo
Mus musculus [17] = test: Hepatoprotective activity in APAP-induced male C57BL/6 mouse model of acute liver injury assessed as reduction in pathological damage in liver at 12.5 to 25 mg/kg, ip measured after 12 hrs by H and E staining based analysis; type: functional, organism-based; conditions: dose 12.5-25 mg/kg
Mus musculus [18] = test: Anti-inflammatory activity in APAP-induced Nrf2 knockout male C57BL/6 mouse model of acute liver injury assessed as increase in MPO positive cells in liver at 25 mg/kg, ip preadministered with compound followed by APAP induction and measured after 12 hrs by staining based analysis; type: functional, organism-based
[19] = Toxicity in C57BL/6J mouse assessed as histopathological change in splenic tissue at 25 mg/kg, ip by H and E staining based analysis; type: organism-based; conditions: in vivo
Mus musculus [20] = test: Anti-inflammatory activity in APAP-induced C57BL/6 mouse model of acute liver injury assessed as reduction in neutrophil invasion in liver at 12.5 to 25 mg/kg, ip measured after 12 hrs by immunohistochemical staining based analysis; type: functional, organism-based; conditions: dose 12.5-25 mg/kg
[21] = Elimination half life in Sprague-Dawley rat at 10 mg/kg, po; type: ADME, organism-based; conditions: in vivo, read-out: beta t1/2 (converted)
[22] = Toxicity in C57BL/6J mouse assessed as histopathological change in hepatic tissue at 25 mg/kg, ip by H and E staining based analysis; type: organism-based; conditions: in vivo
Mus musculus [23] = test: Hepatoprotective activity in APAP-induced Nrf2 knockout male C57BL/6 mouse model of acute liver injury assessed as reduction in liver damage at 25 mg/kg, ip preadministered with compound followed by APAP induction and measured after 12 hrs by H and E staining based analysis; type: functional, organism-based

- Activity [1]: Dose-dependent-effect
- Activity [2]: Dose-dependent-effect
- fold change (FC) [4]: 2.3
- Tmax [6]: 1.5 h
- AUC(0-t) [8]: 7690 ng·h/mL
- Activity [11]: Dose-dependent-effect
- Activity [14]: Dose-dependent-effect
- half-life [15]: 5.45 h
- half-life [21]: 3.47 h
Compound: COc1ccc(-c2cc(=O)c3ccc(NS(=O)(=O)c4ccc(F)cc4)cc3o2)cc1
- Activity (Mus musculus [3]): Active
- Activity (Mus musculus [5]): No effect
- Activity (Mus musculus [7]): Dose-dependent-effect
- Activity (Mus musculus [9]): inactive
- concentration at 13 h [10]: 175 ng/g
- Activity (Mus musculus [12]): Active
- concentration at 13 h [13]: 155 ng/mL
- Activity [16]: Non-toxic
- Activity (Mus musculus [17]): Active
- Activity (Mus musculus [18]): inactive
- Activity [19]: Non-toxic
- Activity (Mus musculus [20]): Active
- Activity [22]: Non-toxic
- Activity (Mus musculus [23]): inactive
